Source: ChEMBL document CHEMBL2331307, “Modulation of cytochromes P450 with xanthone-based molecules: from aromatase to aldosterone synthase and steroid 11β-hydroxylase inhibition” (J Med Chem, 2013)

How the values were obtained:
[1] = biological target: T1, Cytochrome P450 11B1, mitochondrial (Homo sapiens, UniProt P15538)
T1 sequence (P15538 whole entry): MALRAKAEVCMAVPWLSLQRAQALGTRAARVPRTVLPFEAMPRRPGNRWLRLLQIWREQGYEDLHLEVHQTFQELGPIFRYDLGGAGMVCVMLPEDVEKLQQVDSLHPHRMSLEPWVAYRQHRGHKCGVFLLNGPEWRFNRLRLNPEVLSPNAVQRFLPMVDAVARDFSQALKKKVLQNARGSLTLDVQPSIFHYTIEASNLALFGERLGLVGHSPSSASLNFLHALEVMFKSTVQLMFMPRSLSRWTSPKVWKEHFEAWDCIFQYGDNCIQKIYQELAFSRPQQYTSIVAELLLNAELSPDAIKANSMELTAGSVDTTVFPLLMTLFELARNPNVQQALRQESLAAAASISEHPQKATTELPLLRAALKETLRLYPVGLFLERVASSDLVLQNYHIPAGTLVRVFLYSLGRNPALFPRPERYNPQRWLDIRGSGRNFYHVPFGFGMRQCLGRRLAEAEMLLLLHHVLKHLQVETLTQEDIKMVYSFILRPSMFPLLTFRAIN
Description: Inhibition of human CYP11B1 expressed in hamster V79MZh cells using [1,2-3H]-11-deoxycorticosterone as substrate

[2] = biological target: T2, Cytochrome P450 11B2, mitochondrial (Homo sapiens, UniProt P19099)
T2 sequence (P19099 whole entry): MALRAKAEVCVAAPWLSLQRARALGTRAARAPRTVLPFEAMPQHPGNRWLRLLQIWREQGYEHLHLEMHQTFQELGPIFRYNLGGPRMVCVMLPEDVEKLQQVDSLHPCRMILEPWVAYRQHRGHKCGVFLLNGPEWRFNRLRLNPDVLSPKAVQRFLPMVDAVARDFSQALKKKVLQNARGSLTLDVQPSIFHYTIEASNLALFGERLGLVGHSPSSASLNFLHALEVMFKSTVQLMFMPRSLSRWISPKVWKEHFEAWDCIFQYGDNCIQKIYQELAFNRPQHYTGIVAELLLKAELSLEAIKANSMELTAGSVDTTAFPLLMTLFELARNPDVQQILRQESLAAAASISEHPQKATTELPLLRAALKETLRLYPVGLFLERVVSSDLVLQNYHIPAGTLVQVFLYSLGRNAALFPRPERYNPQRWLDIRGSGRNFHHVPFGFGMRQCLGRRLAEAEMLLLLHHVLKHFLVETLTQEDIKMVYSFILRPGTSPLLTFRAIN
Description: Inhibition of human CYP11B2 expressed in hamster V79MZh cells using [1,2-3H]-11-deoxycorticosterone as substrate

Aromatase = biological target: T3, Aromatase (Homo sapiens, UniProt P11511)
T3 sequence (P11511 whole entry): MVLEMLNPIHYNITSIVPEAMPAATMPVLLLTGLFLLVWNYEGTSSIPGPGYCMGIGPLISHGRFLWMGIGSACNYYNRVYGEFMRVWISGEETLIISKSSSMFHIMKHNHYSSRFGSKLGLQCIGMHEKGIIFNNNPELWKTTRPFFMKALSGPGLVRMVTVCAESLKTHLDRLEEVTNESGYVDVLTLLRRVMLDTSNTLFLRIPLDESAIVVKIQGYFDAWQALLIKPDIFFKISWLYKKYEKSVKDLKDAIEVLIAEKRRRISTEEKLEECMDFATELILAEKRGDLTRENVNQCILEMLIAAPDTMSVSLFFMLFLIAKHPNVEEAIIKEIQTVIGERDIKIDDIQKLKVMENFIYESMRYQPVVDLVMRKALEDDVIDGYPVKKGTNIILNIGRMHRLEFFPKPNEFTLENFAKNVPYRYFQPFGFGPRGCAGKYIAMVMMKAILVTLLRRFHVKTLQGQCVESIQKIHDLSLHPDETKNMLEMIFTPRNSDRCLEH
Description: Inhibition of human placental CYP19 using [1beta-3H]androstenedione as substrate by 3H2O-method

[3] = biological target: T4, Steroid 17-alpha-hydroxylase/17,20 lyase (Homo sapiens, UniProt P05093)
T4 sequence (P05093 whole entry): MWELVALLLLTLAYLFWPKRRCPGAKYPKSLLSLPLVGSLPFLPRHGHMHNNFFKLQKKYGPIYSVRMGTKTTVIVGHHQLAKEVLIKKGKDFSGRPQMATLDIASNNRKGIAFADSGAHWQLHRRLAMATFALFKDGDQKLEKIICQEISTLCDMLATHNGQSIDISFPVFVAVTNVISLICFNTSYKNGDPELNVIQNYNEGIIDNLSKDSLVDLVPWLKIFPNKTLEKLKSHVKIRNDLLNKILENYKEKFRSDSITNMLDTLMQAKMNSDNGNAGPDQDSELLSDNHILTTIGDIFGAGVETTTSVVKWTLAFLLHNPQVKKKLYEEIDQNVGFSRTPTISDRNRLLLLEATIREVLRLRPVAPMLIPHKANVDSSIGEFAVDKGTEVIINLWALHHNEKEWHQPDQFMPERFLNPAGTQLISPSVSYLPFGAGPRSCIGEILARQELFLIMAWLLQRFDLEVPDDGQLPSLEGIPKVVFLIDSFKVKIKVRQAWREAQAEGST
Description: Inhibition of human CYP17 expressed in Escherichia coli co-expressing rat NADPH-P450-reductase using progesterone as substrate

| Structure (SMILES) | IC50 [1] [µM] | IC50 [2] [µM] | IC50 (Aromatase) [µM] | IC50 [3] [µM] |
| --- | --- | --- | --- | --- |
| O=c1c2ccccc2oc2cccc(Cn3ccnc3)c12 | 0.0991 | 0.114 | – | – |
| O=c1c2ccccc2oc2c(Cl)ccc(Cn3ccnc3)c12 | 0.0005 | 0.003 | 0.48 | 0.26 |
| O=c1c2ccccc2oc2c(I)ccc(Cn3ccnc3)c12 | 0.0192 | 0.0235 | 0.46 | 1.35 |
| O=c1c2ccccc2oc2c(-c3ccccc3)ccc(Cn3ccnc3)c12 | 0.156 | 0.104 | 0.3 | 1.89 |
| COc1ccc(Cn2ccnc2)c2c(=O)c3ccccc3oc12 | 0.0801 | 0.0411 | 1.1 | 0.61 |
| CCOc1ccc(Cn2ccnc2)c2c(=O)c3ccccc3oc12 | 0.0254 | 0.0148 | 1.97 | > 5 |
| CC(C)Oc1ccc(Cn2ccnc2)c2c(=O)c3ccccc3oc12 | 0.0925 | 0.0191 | 0.4 | 1.25 |
| CC(C)CCOc1ccc(Cn2ccnc2)c2c(=O)c3ccccc3oc12 | 0.0244 | 0.0252 | 0.837 | > 5 |
| CCC(C)Oc1ccc(Cn2ccnc2)c2c(=O)c3ccccc3oc12 (configuration not stated) | 0.0131 | 0.0153 | 0.575 | > 5 |
| O=c1c2ccccc2oc2c(OCC3CC3)ccc(Cn3ccnc3)c12 | 0.0055 | 0.0241 | 0.565 | > 5 |
| O=c1c2ccccc2oc2c(OC3CCCC3)ccc(Cn3ccnc3)c12 | 0.268 | 0.0997 | 0.26 | > 5 |
| O=c1c2ccccc2oc2c(O)ccc(Cn3ccnc3)c12 | 0.416 | 0.235 | 0.17 | 0.493 |
| Nc1ccc(Cn2ccnc2)c2c(=O)c3ccccc3oc12 | 0.785 | 0.676 | 6.39 | 1.74 |
| O=c1c2ccccc2oc2c([N+](=O)[O-])ccc(Cn3ccnc3)c12 | 0.0223 | 0.0311 | – | – |
| N#Cc1ccc(Cn2ccnc2)c2c(=O)c3ccccc3oc12 | 0.0134 | 0.0195 | – | – |
| O=c1c2ccccc2oc2c(Br)ccc(Cn3ccnc3)c12 | 0.0067 | 0.0085 | – | – |
| C[C@]12CC[C@H](O)CC1=CC[C@@H]1[C@@H]2CC[C@]2(C)C(c3cccnc3)=CC[C@@H]12 [ABIRATERONE] | – | – | > 5 | – |
